Source: patent US11512203B2, “Water-soluble azo compound or salt thereof, ink and recording medium” (Nippon Kayaku Kabushiki Kaisha, priority 2016, dated 2022)
Each block holds one molecule with its values, some of them ahead of it.

What was measured:
Format in all cases: physicochemical
[1] = Xenon light resistance test, inks of Examples 1, 2 (Table 48); conditions: xenon 100 klux, 168 hours, 24° C., 60% RH, 55% density gradation, grade of coloring matter persistence rate; for Results from light resistance tests, Glossy paper 3: ink on Brother BP71G; for Results from light resistance tests, Glossy paper 1: ink on Canon Photograph paper, platinum grade (PT-201); for Results from light resistance tests, Glossy paper 4: ink on FUJIFILM Gasai Photo-finishing Pro; for Results from light resistance tests, Glossy paper 2: ink on Seiko Epson Photograph paper Crispia
Description: Components shown in Table 47 below were mixed to obtain solutions, which were then subjected to precision filtration through 0.45 μm membrane filters to prepare inks of Examples 1, 2 and Comparative Examples 1, 2. The numerical values in the table are in terms of “parts,” and the symbol “-” means that that component is not included. In Table 47 below, the component […] is indicated as “remainder”.
(§1) Ink-jet recording was performed with an ink-jet printer (Canon, Inc., Product name: PIXUS ip7230) to allow each of the inks from Examples 1, 2 and Comparative Examples 1, 2 to be attached on the following glossy papers 1 to 4. Upon performing recording, image patterns were created so that the density can be obtained in a gradation of 6 levels: 100%, 85%, 70%, 55%, 40%, and 25% to obtain a half-tone recorded article. The resulting recorded article was used as a test piece to perform the following tests.
(§2) Glossy paper 1: Canon, Inc., Product name: Canon Photograph paper, platinum grade (PT-201)
(§3) Glossy paper 2: Seiko Epson Corporation, Product name: Photograph paper Crispia
(§4) Glossy paper 3: Brother Industries, Ltd., Product name: BP71G
(§5) Glossy paper 4: FUJIFILM Corporation, Product name: Gasai Photo-finishing Pro
When required, color measurements were performed for a recorded image using a colorimeter (Product name SpectroEye from X-rite, Inc.). Color measurements were performed under the conditions of a density standard of ANSI A, a wide viewing angle of 2 degrees, a light source of D50.
A test piece with a holder was placed in a xenon weatherometer XL75 (Suga Test Instruments Co., Ltd.), and irradiated for 168 hours at a temperature of 24° C., a humidity of 60% RH, and an illuminance of 100 klux. A gradation portion with a density of 55% of each test piece was subjected to color measurements of reflection densities before and after the test. A coloring matter persistence rate was computed from the reflection densities obtained, and evaluation was performed using the following 3-grade criteria.
A coloring matter persistence rate of 85% or more: A A coloring matter persistence rate of 81% or more and less than 85%: B
A coloring matter persistence rate of less than 81%: C
(Formula for Computing Coloring Matter Persistence Rate) Coloring matter persistence rate (%)=(reflection density after test/reflection density before test)×100

[2] = Xenon light resistance test, ink of Example 4 (Table 50); conditions: for each glossy paper (Table 50)
Description: An ink of Example 4 was prepared as in Example 1 except that the compound represented by the above formula (104) was used instead of the compound represented by the above formula (101).
as §1, with “from Examples 4 and Comparative” for “from Examples 1, 2 and Comparative”, “1, 2 above to be” for “1, 2 to be”
as §2, §3, §4, §5
When required, color measurements of a recorded image were performed using a colorimeter (Product name SpectroEye from X-rite, Inc.). Color measurements were performed under the conditions of a density standard of DIN NB, a wide viewing angle of 2 degrees, a light source of D65. […]

[3] = Xenon light resistance test, inks of Examples 10 to 12 (Table 53); conditions: Glossy paper 1 Canon GL-101, 2 Epson Crispia, 3 Brother BP71G
Description: Inks of Examples 10 to 12 were prepared as in Example 1 except that the compounds represented by the above formulae (110) to (112) were used, respectively, instead of the compound represented by the above formula (101).
as §1, with “from Examples 10 to 12 and Comparative” for “from Examples 1, 2 and Comparative”, “1, 2 above to be” for “1, 2 to be”, “1 to 3. Upon performing” for “1 to 4. Upon performing”
(§6) Glossy paper 1: Canon, Inc., Product name: Canon Photograph paper, gold grade (GL-101)
as §3, §4
(§7) When required, color measurements of a recorded image were performed using a colorimeter (Product name SpectroEye from X-rite, Inc.). Color measurements were performed under the conditions of a density standard of ANSI A, a wide viewing angle of 2 degrees, a light source of D50. […]

[4] = Xenon light resistance test, ink of Example 13 (Table 54); conditions: Glossy paper 1 Canon GL-101, 2 Epson Photograph paper <glossy>, 3 FUJIFILM Gasai Photo-finishing Pro
Description: An ink of Example 13 was prepared as in Example 1 except that the compound represented by the above formula (113) was used instead of the compound represented by the above formula (101).
as §1, with “inks from Example 13 and Comparative” for “inks from Examples 1, 2 and Comparative”, “1, 2 above to be” for “1, 2 to be”, “1 to 3. Upon performing” for “1 to 4. Upon performing”
as §6
Glossy paper 2: Seiko Epson Corporation, Product name: Photograph paper
Glossy paper 3: FUJIFILM Corporation, Product name: Gasai Photo-finishing Pro
as §7

[5] = Xenon light resistance test, ink of Example 16 (Table 56)
Description: An ink of Example 16 was prepared as in Example 1 except that the compound represented by the above formula (116) was used instead of the compound represented by the above formula (101).
as §1, with “inks from Example 16 and Comparative” for “inks from Examples 1, 2 and Comparative”, “1, 2 above to be” for “1, 2 to be”
as §2
Glossy paper 2: Canon, Inc., Product name: Canon Photograph paper, gold grade (GL-101)
Glossy paper 3: Seiko Epson Corporation, Product name: Photograph paper Crispia
Glossy paper 4: Brother Industries, Ltd., Product name: BP71G
as §7

[6] = Xenon light resistance test, ink of Example 17 (Table 57)
Description: An ink of Example 17 was prepared as in Example 1 except that the compound represented by the above formula (117) was used instead of the compound represented by the above formula (101).
as §1, with “inks from Example 17 and Comparative” for “inks from Examples 1, 2 and Comparative”, “1, 2 above to be” for “1, 2 to be”, “glossy papers 1, 2. Upon performing” for “glossy papers 1 to 4. Upon performing”
as §2
Glossy paper 2: FUJIFILM Corporation, Product name: Gasai Photo-finishing Pro
When required, color measurements of a recorded image were performed using a colorimeter (Product name SpectroEye from X-rite, Inc.). Color measurements were performed under the conditions of a density standard of ANSI A, a wide viewing angle of 2 degrees, a light source of D50.
A test piece with a holder was placed in a xenon weatherometer XL75 (Suga Test Instruments Co., Ltd.), and irradiated for 168 hours at a temperature of 24° C., a humidity of 60% RH, and an illuminance of 100 klux. […]

Compound: O=S(=O)(O)CCCOc1cc(N=Nc2ccc(Cl)c(S(=O)(=O)O)c2)c(Cl)cc1Nc1nc(NCCO)nc(Nc2cc(Cl)c(N=Nc3ccc(Cl)c(S(=O)(=O)O)c3)cc2OCCCS(=O)(=O)O)n1 [Comparative Example 1]
Results from light resistance tests, Glossy paper 3 [1]: B (A coloring matter persistence rate of 81% or more and less than 85%)
Results from light resistance tests, Glossy paper 1 [1]: B (A coloring matter persistence rate of 81% or more and less than 85%)
Results from light resistance tests, Glossy paper 4 [1]: C (A coloring matter persistence rate of less than 81%)
Results from light resistance tests, Glossy paper 2 [1]: B (A coloring matter persistence rate of 81% or more and less than 85%)

Compound: COc1cc(N=Nc2cccc(S(=O)(=O)O)c2)ccc1NC(=O)Nc1ccc(N=Nc2cccc(S(=O)(=O)O)c2)cc1OC [Comparative Example 2, C.I. Direct Yellow 132]
Results from light resistance tests, Glossy paper 3 [1]: B (A coloring matter persistence rate of 81% or more and less than 85%)
Results from light resistance tests, Glossy paper 1 [1]: B (A coloring matter persistence rate of 81% or more and less than 85%)
Results from light resistance tests, Glossy paper 4 [1]: B (A coloring matter persistence rate of 81% or more and less than 85%)
Results from light resistance tests, Glossy paper 2 [1]: C (A coloring matter persistence rate of less than 81%)

Compound: COCCCNc1nc(Nc2cc(Cl)c(N=Nc3ccc(Cl)c(S(=O)(=O)O)c3)cc2OCCCS(=O)(=O)O)nc(Nc2cc(Cl)c(N=Nc3ccc(Cl)c(S(=O)(=O)O)c3)cc2OCCCS(=O)(=O)O)n1 [Example 4]
light resistance tests, results compared with Comparative Examples 1, 2 [2]: better results

Compound: O=S(=O)(O)CCCOc1cc(N=Nc2ccc(Cl)c(S(=O)(=O)O)c2)c(Cl)cc1Nc1nc(Nc2cc(Cl)c(N=Nc3ccc(Cl)c(S(=O)(=O)O)c3)cc2OCCCS(=O)(=O)O)nc(NC(CO)CO)n1 [Example 13]
light resistance results as compared with Comparative Example 2 [4]: better results for each glossy paper

Other lines, results leading:

light resistance results as compared with Comparative Example 2 [3]: better results for each glossy paper
Compound: CCNc1nc(Nc2cc(Cl)c(N=Nc3ccc(Cl)c(S(=O)(=O)O)c3)cc2OCCCS(=O)(=O)O)nc(Nc2cc(Cl)c(N=Nc3ccc(Cl)c(S(=O)(=O)O)c3)cc2OCCCS(=O)(=O)O)n1 [Example 10]

light resistance as compared with Comparative Examples 1, 2 (conclusion) [5]: superior light resistance
light resistance results as compared with Comparative Examples 1, 2 [5]: good results for each glossy paper
Compound: O=S(=O)(O)CCCOc1cc(N=Nc2ccc(Cl)c(S(=O)(=O)O)c2)c(Cl)cc1Nc1nc(NCC2CCCO2)nc(Nc2cc(Cl)c(N=Nc3ccc(Cl)c(S(=O)(=O)O)c3)cc2OCCCS(=O)(=O)O)n1 (stereo not drawn) [Example 16]

light resistance as compared with Comparative Examples 1, 2 (conclusion) [6]: superior light resistance
light resistance results as compared with Comparative Examples 1, 2 [6]: good results for each glossy paper
Compound: O=S(=O)(O)CCCOc1cc(N=Nc2ccc(Cl)c(S(=O)(=O)O)c2)c(Cl)cc1Nc1nc(Nc2cc(Cl)c(N=Nc3ccc(Cl)c(S(=O)(=O)O)c3)cc2OCCCS(=O)(=O)O)nc(N2CCCC2)n1 [Example 17]
